Where a name gives a salt, the structure may show the parent alone.
Legend:
[1] = molecular target: T1, human JAK1 (a.a. 837-1142) (Homo sapiens, UniProt P23458); experiment: In vitro JAK kinase assay (HTRF, phosphorylation of a biotinylated peptide), JAK1; assay type: biochemical; conditions: Assay Conditions 1 mM ATP
T1 construct: human JAK1 (a.a. 837-1142); His tag (N); made in house; host or cells: insect cells (baculovirus)
Method in brief: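 IC50s come from HTRF detection (Eu-Py20, SA-APC, 40 min binding) after 1 h RT reactions with 500 nM biotinylated peptide in Tris pH 7.8 buffer. ATP either 1 mM or Km-level, 90 μM for JAK1 and 30 μM for JAK2; enzymes are baculovirus-expressed His-tagged catalytic domains (JAK1 837-1142, JAK2 828-1132).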

Jak2 (a.a. 828-1132) = molecular target: T2, Jak2 (a.a. 828-1132) (Homo sapiens, UniProt O60674); experiment: In vitro JAK kinase assay (HTRF, phosphorylation of a biotinylated peptide), JAK2, reported as JAK2/JAK1 ratio; assay type: biochemical; conditions: Assay Conditions 1 mM ATP
T2 construct: Jak2 (a.a. 828-1132); His tag (N); made in house; host or cells: insect cells (baculovirus)
T2 sequence (O60674 828-1132): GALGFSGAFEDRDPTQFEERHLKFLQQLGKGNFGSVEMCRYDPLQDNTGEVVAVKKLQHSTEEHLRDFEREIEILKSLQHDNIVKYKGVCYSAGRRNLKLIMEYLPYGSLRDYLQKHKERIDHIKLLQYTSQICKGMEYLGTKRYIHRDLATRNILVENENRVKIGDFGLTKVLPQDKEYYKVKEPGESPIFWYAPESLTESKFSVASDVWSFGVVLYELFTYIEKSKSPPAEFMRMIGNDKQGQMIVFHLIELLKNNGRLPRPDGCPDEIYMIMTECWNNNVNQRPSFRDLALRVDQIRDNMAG

T1 sequence (P23458 849-1154): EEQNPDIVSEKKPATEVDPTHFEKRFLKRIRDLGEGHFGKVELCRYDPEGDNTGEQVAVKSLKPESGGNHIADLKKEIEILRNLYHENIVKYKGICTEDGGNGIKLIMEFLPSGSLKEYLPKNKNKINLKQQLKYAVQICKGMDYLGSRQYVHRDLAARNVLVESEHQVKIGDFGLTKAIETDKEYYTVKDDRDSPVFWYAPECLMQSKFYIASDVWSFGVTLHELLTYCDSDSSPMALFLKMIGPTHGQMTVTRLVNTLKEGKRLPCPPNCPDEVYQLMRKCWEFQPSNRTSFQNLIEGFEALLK

| IC50 [1] | JAK2/JAK1 IC50 ratio (Jak2 (a.a. 828-1132)) | Structure (SMILES) |
| --- | --- | --- |
| < 0.05 µM | 6.9 | N#CC[C@@H]([C@H]1CCN(c2ncc(Br)s2)C1)n1cc(-c2ncnc3[nH]ccc23)cn1 [Example 47, (3S)-3-[(3S)-1-(5-bromo-1,3-thiazol-2-yl)pyrrolidin-3-yl]-3-[4-(7H-pyrrolo[2,3-d]pyrimidin-4-yl)-1H-pyrazol-1-yl]propanenitrile trifluoroacetate] |
| < 0.05 µM | >30 | N#CC[C@@H]([C@H]1CCN(c2cccc(Cl)c2C#N)C1)n1cc(-c2ncnc3[nH]ccc23)cn1 [Example 48, 2-chloro-6-((3S)-3-{(1S)-2-cyano-1-[4-(7H-pyrrolo[2,3-d]pyrimidin-4-yl)-1H-pyrazol-1-yl]ethyl}pyrrolidin-1-yl)benzonitrile trifluoroacetate] |
| < 0.05 µM | 10.2 | N#CC[C@@H]([C@H]1CCN(c2cccc(C#N)c2C#N)C1)n1cc(-c2ncnc3[nH]ccc23)cn1 [Example 49, 3-((3S)-3-{(1S)-2-cyano-1-[4-(7H-pyrrolo[2,3-d]pyrimidin-4-yl)-1H-pyrazol-1-yl]ethyl}pyrrolidin-1-yl)phthalonitrile trifluoroacetate] |
| < 0.05 µM | 15.4 | N#CC[C@@H]([C@H]1CCN(c2nccc(C(F)(F)F)c2C#N)C1)n1cc(-c2ncnc3[nH]ccc23)cn1 [Example 50, 2-((3S)-3-{(1S)-2-cyano-1-[4-(7H-pyrrolo[2,3-d]pyrimidin-4-yl)-1H-pyrazol-1-yl]ethyl}pyrrolidin-1-yl)-4-(trifluoromethyl)nicotinonitrile trifluoroacetate] |
| < 0.05 µM | 6.8 | N#CC[C@@H]([C@H]1CCN(c2nccnc2C#N)C1)n1cc(-c2ncnc3[nH]ccc23)cn1 [Example 51, 3-((3S)-3-{(1S)-2-cyano-1-[4-(7H-pyrrolo[2,3-d]pyrimidin-4-yl)-1H-pyrazol-1-yl]ethyl}pyrrolidin-1-yl)pyrazine-2-carbonitrile trifluoroacetate] |
| < 0.05 µM | 2 | N#CCC(C1CCN(c2ccccc2C#N)C1)n1cc(-c2ncnc3[nH]ccc23)cn1 (stereo not drawn) [Example 52, 2-(3-{2-cyano-1-[4-(7H-pyrrolo[2,3-d]pyrimidin-4-yl)-1H-pyrazol-1-yl]ethyl}pyrrolidin-1-yl)benzonitrile trifluoroacetate salt] |
| < 0.05 µM | >7.7 | Cc1cccc(N2CC[C@H]([C@H](CC#N)n3cc(-c4ncnc5[nH]ccc45)cn3)C2)c1C#N [Example 53, 2-((3S)-3-{(1S)-2-cyano-1-[4-(7H-pyrrolo[2,3-d]pyrimidin-4-yl)-1H-pyrazol-1-yl]ethyl}pyrrolidin-1-yl)-6-methylbenzonitrile trifluoroacetate salt] |
| < 0.05 µM | 4.6 | N#CC[C@@H]([C@H]1CCN(c2cccc(F)c2C#N)C1)n1cc(-c2ncnc3[nH]ccc23)cn1 [Example 54, 2-((3S)-3-{(1S)-2-cyano-1-[4-(7H-pyrrolo[2,3-d]pyrimidin-4-yl)-1H pyrazol-1-yl]ethyl}pyrrolidin-1-yl) 6-fluorobenzonitrile trifluoroacetate salt] |
| < 0.05 µM | >8 | COc1cccc(N2CC[C@H]([C@H](CC#N)n3cc(-c4ncnc5[nH]ccc45)cn3)C2)c1C#N [Example 55, 2-((3S)-3-{(1S)-2-cyano-1-[4-(7H-pyrrolo[2,3-d]pyrimidin-4-yl)-1H-pyrazol-1-yl]ethyl}pyrrolidin-1-yl)-6-methoxybenzonitrile trifluoroacetate salt] |
| < 0.05 µM | >10 | N#CC[C@@H]([C@H]1CCN(c2cccc(C(F)(F)F)c2C#N)C1)n1cc(-c2ncnc3[nH]ccc23)cn1 [Example 56, 2-((3S)-3-{(1S)-2-cyano-1-[4-(7H-pyrrolo[2,3-d]pyrimidin-4-yl)-1H-pyrazol-1-yl]ethyl}pyrrolidin-1-yl)-6-(trifluoromethyl)benzonitrile trifluoroacetate salt] |
| < 0.05 µM | 37 | N#CC[C@@H]([C@H]1CCN(c2cccc(Br)c2C#N)C1)n1cc(-c2ncnc3[nH]ccc23)cn1 [Example 57, 2-bromo-6-((3S)-3-{(1S)-2-cyano-1-[4-(7H-pyrrolo[2,3-d]pyrimidin-4-yl)-1H-pyrazol-1-yl]ethyl}pyrrolidin-1-yl)benzonitrile trifluoroacetate salt] |
| < 0.05 µM | 8 | N#CC[C@@H]([C@H]1CCN(c2c(F)cccc2C#N)C1)n1cc(-c2ncnc3[nH]ccc23)cn1 [Example 58, 2-((3S)-3-{(1S)-2-cyano-1-[4-(7H-pyrrolo[2,3-d]pyrimidin-4-yl)-1H-pyrazol-1-yl]ethyl}pyrrolidin-l-yl)-3-fluorobenzonitrile trifluoroacetate salt] |
| < 0.05 µM | 6.5 | N#CC[C@@H]([C@H]1CCN(c2c(C#N)cccc2C#N)C1)n1cc(-c2ncnc3[nH]ccc23)cn1 [Example 59, 2-((3S)-3-{(1S)-2-cyano-1-[4-(7H-pyrrolo[2,3-d]pyrimidin-4-yl)-1H-pyrazol-1-yl]ethyl}pyrrolidin-1-yl)isophthalonitrile trifluoroacetate salt] |
| < 0.05 µM | 6.6 | N#CC[C@@H]([C@H]1CCN(c2ccc(F)c(F)c2C#N)C1)n1cc(-c2ncnc3[nH]ccc23)cn1 [Example 60, 6-((3S)-3-{(1S)-2-cyano-1-[4-(7H-pyrrolo[2,3-d]pyrimidin-4-yl)-1H-pyrazol-1-yl]ethyl}pyrrolidin-1-yl)-2,3-difluorobenzonitrile trifluoroacetate salt] |
| < 0.05 µM | 6.4 | N#CC[C@@H]([C@H]1CCN(c2c(F)cc(F)c(F)c2C#N)C1)n1cc(-c2ncnc3[nH]ccc23)cn1 [Example 61, 2-((3S)-3-{(1S)-2-cyano-1-[4-(7H-pyrrolo[2,3-d]pyrimidin-4-yl)-1H-pyrazol-1-yl]ethyl}pyrrolidin-1-yl)-3,5,6-trifluorobenzonitrile trifluoroacetate salt] |
| < 0.05 µM | 7.1 | N#CC[C@@H]([C@H]1CCN(c2ncccc2C#N)C1)n1cc(-c2ncnc3[nH]ccc23)cn1 [Example 62, 2-((3S)-3-{(1S)-2-cyano-1-[4-(7H-pyrrolo[2,3-d]pyrimidin-4-yl)-1H-pyrazol-1-yl]ethyl}pyrrolidin-1-yl) nicotinonitrile trifluoroacetate salt] |
| < 0.05 µM | 7.3 | N#CC[C@@H]([C@H]1CCN(c2nc(Cl)c(C#N)cc2F)C1)n1cc(-c2ncnc3[nH]ccc23)cn1 [Example 63, 6-((S)-3-((S)-1-(4-(7H-pyrrolo[2,3-d]pyrimidin-4-yl)-1H-pyrazol-1-yl)-2-cyanoethyl)pyrrolidin-1-yl)-2-chloro-5-fluoronicotinonitrile trifluoroacetate salt] |
| < 0.05 µM | 11 | N#CC[C@@H]([C@H]1CCN(c2cncc(Cl)c2C#N)C1)n1cc(-c2ncnc3[nH]ccc23)cn1 [Example 64, 3-chloro-5-((3S)-3-{(1S)-2-cyano-1-[4-(7H-pyrrolo[2,3-d]pyrimidin-4-yl)-1H-pyrazol-1-yl]ethyl}pyrrolidin-1-yl) isonicotinonitrile trifluoroacetate salt] |
| < 0.05 µM | 9.4 | N#CC[C@@H]([C@H]1CCN(c2c(F)nc(F)c(F)c2C#N)C1)n1cc(-c2ncnc3[nH]ccc23)cn1 [Example 65, 3-((3S)-3-{(1S)-2-cyano-1-[4-(7H-pyrrolo[2,3-d]pyrimidin-4-yl)-1H-pyrazol-1-yl]ethyl}pyrrolidin-1-yl)-2,5,6-trifluoroisonicotinonitrile trifluoroacetate salt] |
| < 0.05 µM | >20 | N#CC[C@@H]([C@H]1CCN(c2nccc(C(F)(F)F)c2F)C1)n1cc(-c2ncnc3[nH]ccc23)cn1 [Example 66, (3S)-3-{(3S)-1-[3-fluoro-4-(trifluoromethyl)pyridin-2-yl]pyrrolidin-3-yl}-3-[4-(7H-pyrrolo[2,3-d]pyrimidin-4-yl)-1H-pyrazol-1-yl] propanenitrile trifluoroacetate salt] |
| < 0.05 µM | 5.6 | N#CC[C@@H]([C@H]1CCN(c2nc(F)c(F)cc2F)C1)n1cc(-c2ncnc3[nH]ccc23)cn1 [Example 67, (3S)-3-[4-(7H-pyrrolo[2,3-d]pyrimidin-4-yl)-1H-pyrazol-1-yl]-3-[(3S)-1-(3,5,6-trifluoropyridin-2-yl)pyrrolidin-3-yl]propanenitrile trifluoroacetate salt] |
| < 0.05 µM | 8.2 | N#CC[C@@H]([C@H]1CCN(c2cccnc2C#N)C1)n1cc(-c2ncnc3[nH]ccc23)cn1 [Example 68, 3-((3S)-3-{(1S)-2-cyano-1-[4-(7H-pyrrolo[2,3-d]pyrimidin-4-yl)-1H-pyrazol-1-yl]ethyl}pyrrolidin-1-yl) pyridine-2-carbonitrile trifluoroacetate salt] |
| < 0.05 µM | 6.5 | N#CC[C@@H]([C@H]1CCN(c2ccc(C#N)c(Cl)n2)C1)n1cc(-c2ncnc3[nH]ccc23)cn1 [Example 69, 2-chloro-6-((3S)-3-{(1S)-2-cyano-1-[4-(7H-pyrrolo[2,3-d]pyrimidin-4-yl)-1H-pyrazol-1-yl]ethyl}pyrrolidin-1-yl)nicotinonitrile trifluoroacetate salt] |
| < 0.05 µM | 1.7 | N#CCC(C1CCN(c2ccc3cc[nH]c3n2)C1)n1cc(-c2ncnc3[nH]ccc23)cn1 (stereo not drawn) [Example 73, 3-(1-(1H-pyrrolo[2,3-b]pyridin-6-yl)pyrrolidin-3-yl)-3-(4-(7H-pyrrolo[2,3-d]pyrimidin-4-yl)-1H-pyrazol-1-yl)propanenitrile trifluoroacetate] |

Source: patent publication US8716303B2, “N-(hetero)aryl-pyrrolidine derivatives of pyrazol-4-yl-pyrrolo[2,3-d]pyrimidines and pyrrol-3-yl-pyrrolo[2,3-d]pyrimidines as janus kinase inhibitors” (Incyte Corporation, priority 2009, dated 2014)
